Experimental data from US20240052028A1, “ENHANCEMENT OF ANTI-TUMOR PHAGOCYTOSIS” (The Board of Trustees of the Leland Stanford Junior …, priority 2020, published 2024).

Experiments:
Type in all cases: cell-based, mouse
Safe^KO Ramos cells = experiment: Time-lapse phagocytosis assay, uptake of pHrodo-labeled Safe^KO Ramos cells by J774 macrophages with anti-CD20 antibodies and GPR84 agonists; conditions: anti-CD20 antibodies, GPR84 agonist added (FIG. 4D)
Experimental: (§1) Time-lapse microscopy assay for phagocytosis J774 cells were lifted by scraping, counted, and plated in 24 well tissue culture plates at a density of 100,000 cells per well in 0.5 ml media 48 h prior to the start of the experiment. At 24 h after plating, media was aspirated and replaced with fresh media containing 10 ng ml^−1 lipopolysaccharide (LPS) (Sigma). On the day of the experiment, target cells that had been transduced with sgRNAs, co-expressed with GFP and PuroR, and selected with puromycin as described above, were lifted, pelleted, and counted. Cells were washed three times in dPBS, incubated in dPBS containing 6.6 ng ml-1 pHrodo-Red succinimidyl ester (Thermo Fisher) at a cell concentration of 1M ml^−1 for 30 minutes, washed once, and resuspended in DMEM supplemented with 2 mM glutamine, 100 units ml^−1 penicillin, […] streptomycin and 10% heat-inactivated FCS, and containing anti-CD20, anti-CD30, and/or anti-CD47 antibodies, as indicated, at a cell concentration of 1M ml^−1. 220 μl of cell suspensions was added to each well. Plates were transferred to an incubator and imaged every 30 or 60 minutes using an Incucyte (Essen). Total red intensity for each well, averaged over 16 images per well, was calculated after applying a threshold for red intensity that excluded most or all cells at the first time point using top-hat background subtraction. Reported values represent the mean total red fluorescence intensity at each timepoint, minus the total red fluorescence at the initial timepoint (to remove signal from occasional autofluorescent debris), normalized to the initial total green fluorescence signal (to account for small variations in target cell density), of duplicate, triplicate, or quadruplicate wells, as indicated in the legend. […]

APMAP^KO Ramos cells = experiment: Time-lapse phagocytosis assay, uptake of pHrodo-labeled APMAP^KO Ramos cells by J774 macrophages with anti-CD20 antibodies and GPR84 agonists; conditions: at high concentrations of agonist, anti-CD20 antibodies (FIG. 12C)
Experimental: as §1

[1] = tested on: Ramos Burkitt lymphoma cells; experiment: ADCP of Ramos Burkitt lymphoma cells by LPS-activated J774 macrophages; conditions: in the presence of LPS-activated J774 macrophages
Experimental: For the screens, cells were split into two conditions, each in duplicate: an untreated control group and ADCP treated group. In the ADCP group, for each round of treatment, Ramos cells were incubated with J774 macrophages, which had been seeded into 15 cm plates 48 h prior (at 5 M cells per plate) and treated with LPS (10 ng ml^−1) starting 24 h prior, in the presence of anti-CD20 antibodies (50 ng ml^−1) (CRISPRko screen) or both anti-CD20 antibodies (50 ng ml^−1) and anti-CD47 antibodies (100 ng ml-1) (CRISPRa screen). 25 M Ramos cells were added to each plate and incubated with J774 macrophages for 24 h, and were then removed from the macrophage-containing plates via two rounds of washing with complete RPMI media. Ramos cells were then allowed to recover in T-150 flasks for 24-72 h before the next round of treatment. At the end of the screen, 300 million cells were recovered from each condition and pelleted by centrifugation. […] The sgRNA sequences were amplified and sequenced using an Illumina NextSeq with ˜40 million reads per condition; ˜200× coverage per library element). […]
To establish a scalable platform for genetic screening for regulators of ADCP, conditions for antibody-stimulated uptake of cancer cells by macrophage cell lines were optimized, which, unlike primary macrophages, can readily be cultured at the ultra-high scales necessary for screening. […]

How did the “antibody-dependent phagocytosis of Safe^KO cells” value (Safe^KO Ramos cells) turn out when `CCCCCCSc1nc(O)cc(=O)[nH]1` [ZQ-16] was run?
The value was “stimulated”.

And the “uptake of APMAP^KO cells” value (APMAP^KO Ramos cells)?
The value was “inhibited”.

Which results are given for `CCCCCCCCNc1cc(=O)[nH]c(=O)[nH]1` [6-OAU, (octylamino) pyrimidine-2,4(1H,3H)-dione]?
antibody-dependent phagocytosis of Safe^KO cells (Safe^KO Ramos cells): stimulated; uptake of APMAP^KO cells (APMAP^KO Ramos cells): inhibited

Which results are given for `CCCCCCCCCC(=O)O` [capric acid]?
antibody-dependent phagocytosis of Safe^KO cells (Safe^KO Ramos cells): stimulated; uptake of APMAP^KO cells (APMAP^KO Ramos cells): inhibited

Which “phagocytosis of Ramos cells” value [1] does the source give for “rituximab-biosimilar anti-CD20 antibodies: rituximab-biosimilar anti-CD20 antibodies used to drive ADCP” here?
The value was “high rates of phagocytosis”.
